Assay results from PubChem BioAssay AID256 (DTP/NCI, 2004).
Values joined by “and” are separate entries in the source; they are usually repeats but may differ in a detail not shown here. Equal entries are not always repeated. Inconclusive results and toxic doses are left out. The calls were made as follows: active = survival T/C of 150% or more; inactive = T/C below 125% in these data.

System: CD2F1 mice, L1210 leukemia ip, survival T/C
Assay: NCI In Vivo Anticancer Drug Screen. Data for tumor model L1210 Leukemia (intraperitoneal) in CD2F1 (CDF1) mice
Details: higher = longer survival
Summary of the method: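 Each value reflects a quotient of treated over vehicle control outcomes in mice with a transplanted tumor.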

[1] = endpoint: mean survival time, dose: 25.0 mg/kg/injection, schedule: Q01DX009 (ip), vehicle: saline with Tween-80
[2] = endpoint: mean survival time, dose: 50.0 mg/kg/injection, schedule: Q01DX009 (ip), vehicle: saline with Tween-80
[3] = endpoint: mean survival time, dose: 100.0 mg/kg/injection, schedule: Q01DX009 (ip), vehicle: saline with Tween-80
[4] = endpoint: mean survival time, dose: 100.0 mg/kg/injection, schedule: Q04DX003 (ip), vehicle: saline with Tween-80
[5] = endpoint: mean survival time, dose: 200.0 mg/kg/injection, schedule: Q04DX003 (ip), vehicle: saline with Tween-80
[6] = endpoint: mean survival time, dose: 400.0 mg/kg/injection, schedule: Q04DX003 (ip), vehicle: saline with Tween-80
[7] = endpoint: mean survival time, dose: 100.0 mg/kg/injection, schedule: Q01DX001 (ip), vehicle: saline with Tween-80
[8] = endpoint: mean survival time, dose: 100.0 mg/kg/injection, schedule: Q01DX001 (ip), vehicle: saline
[9] = endpoint: mean survival time, dose: 200.0 mg/kg/injection, schedule: Q01DX001 (ip), vehicle: saline
[10] = endpoint: mean survival time, dose: 100.0 mg/kg/injection, schedule: Q04DX003 (ip), vehicle: saline
[11] = endpoint: mean survival time, dose: 200.0 mg/kg/injection, schedule: Q04DX003 (ip), vehicle: saline

Measured: T/C

Cc1cc(=NO)cc(C)n1O
inactive: endpoint: median survival time, dose: 25.0 mg/kg/injection, schedule: Q01DX009 (ip), vehicle: distilled water + alcohol 108 % of control | endpoint: median survival time, dose: 50.0 mg/kg/injection, schedule: Q01DX009 (ip), vehicle: distilled water + alcohol 104 % of control | endpoint: median survival time, dose: 100.0 mg/kg/injection, schedule: Q01DX009 (ip), vehicle: distilled water + alcohol 112 % of control | endpoint: median survival time, dose: 200.0 mg/kg/injection, schedule: Q01DX009 (ip), vehicle: distilled water + alcohol 108 % of control | endpoint: median survival time, dose: 400.0 mg/kg/injection, schedule: Q01DX009 (ip), vehicle: distilled water + alcohol 97 % of control

O=C(Nc1cccc2c(OC(=O)C(Cl)Cl)c(N=Nc3ccc(S(=O)(=O)Nc4nccs4)cc3)cc(N=Nc3ccc(S(=O)(=O)Nc4nccs4)cc3)c12)C(Cl)Cl (tested in a mixture with another compound)
inactive: endpoint: mean survival time, dose: 3.12 mg/kg/injection, schedule: Q01DX009 (ip), vehicle: saline with Tween-80 96 % of control and 101 % of control | endpoint: mean survival time, dose: 6.25 mg/kg/injection, schedule: Q01DX009 (ip), vehicle: saline with Tween-80 95 % of control and 101 % of control | endpoint: mean survival time, dose: 12.5 mg/kg/injection, schedule: Q01DX009 (ip), vehicle: saline with Tween-80 96 % of control and 102 % of control | [1] 101 % of control and 106 % of control | [2] 101 % of control and 110 % of control | [3] 113 % of control and 112 % of control | endpoint: median survival time, dose: 100.0 mg/kg/injection, schedule: Q01DX009 (ip), vehicle: saline with Tween-80 113 % of control | endpoint: median survival time, dose: 200.0 mg/kg/injection, schedule: Q01DX009 (ip), vehicle: saline with Tween-80 106 % of control | endpoint: median survival time, dose: 400.0 mg/kg/injection, schedule: Q01DX009 (ip), vehicle: saline with Tween-80 100 % of control

Cc1ccc(OS(=O)(=O)c2ccc(C)cc2)cc1
inactive: [3] 97 % of control | [4] 96 % of control | endpoint: mean survival time, dose: 200.0 mg/kg/injection, schedule: Q01DX009 (ip), vehicle: saline with Tween-80 100 % of control | [5] 93 % of control | endpoint: mean survival time, dose: 400.0 mg/kg/injection, schedule: Q01DX009 (ip), vehicle: saline with Tween-80 96 % of control | [6] 98 % of control

NC(=S)NN=C1CCC(=NNC(N)=S)CC1
inactive: endpoint: mean survival time, dose: 50.0 mg/kg/injection, schedule: Q01DX009 (ip), vehicle: other 94 % of control | endpoint: mean survival time, dose: 100.0 mg/kg/injection, schedule: Q01DX009 (ip), vehicle: other 91 % of control | endpoint: mean survival time, dose: 250.0 mg/kg/injection, schedule: Q01DX009 (ip), vehicle: other 89 % of control

Nc1nc(-c2cccc([N+](=O)[O-])c2)c(N=Nc2ccccc2Cl)s1
inactive: [7] 89 % of control | endpoint: mean survival time, dose: 400.0 mg/kg/injection, schedule: Q01DX001 (ip), vehicle: saline with Tween-80 96 % of control

COC(=O)C1C2CCC(C2)C1C (stereo not given)
inactive: [1] 93 % of control | [2] 104 % of control | [3] 98 % of control | [4] 90 % of control

S=c1[nH]c2ccccc2n1CCc1ccncc1
inactive: endpoint: mean survival time, dose: 100.0 mg/kg/injection, schedule: Q#A X016 (ip), vehicle: saline 108 % of control | endpoint: mean survival time, dose: 200.0 mg/kg/injection, schedule: Q#A X016 (ip), vehicle: saline 95 % of control | endpoint: mean survival time, dose: 400.0 mg/kg/injection, schedule: Q## X016 (ip), vehicle: saline 102 % of control | endpoint: mean survival time, dose: 400.0 mg/kg/injection, schedule: Q#A X016 (ip), vehicle: saline 98 % of control | endpoint: mean survival time, dose: 800.0 mg/kg/injection, schedule: Q## X016 (ip), vehicle: saline 100 % of control | endpoint: mean survival time, dose: 1600.0 mg/kg/injection, schedule: Q## X016 (ip), vehicle: saline 100 % of control

ClCCCN1CCN(CCCCl)CC1
inactive: endpoint: mean survival time, dose: 6.25 mg/kg/injection, schedule: Q01DX009 (ip), vehicle: distilled water + alcohol 96 % of control | endpoint: mean survival time, dose: 12.5 mg/kg/injection, schedule: Q01DX009 (ip), vehicle: distilled water + alcohol 95 % of control | endpoint: mean survival time, dose: 25.0 mg/kg/injection, schedule: Q01DX009 (ip), vehicle: distilled water + alcohol 102 % of control | endpoint: mean survival time, dose: 50.0 mg/kg/injection, schedule: Q01DX009 (ip), vehicle: distilled water + alcohol 103 % of control | endpoint: mean survival time, dose: 100.0 mg/kg/injection, schedule: Q01DX009 (ip), vehicle: distilled water + alcohol 108 % of control

N#CCN(CC#N)CC#N
inactive: endpoint: mean survival time, dose: 1.56 mg/kg/injection, schedule: Q01DX009 (ip), vehicle: saline 97 % of control | endpoint: mean survival time, dose: 3.13 mg/kg/injection, schedule: Q01DX009 (ip), vehicle: saline 92 % of control | endpoint: mean survival time, dose: 6.25 mg/kg/injection, schedule: Q01DX009 (ip), vehicle: saline 100 % of control

CCCCc1ccc(O)c(CN2CCCCC2)c1
inactive: endpoint: mean survival time, dose: 25.0 mg/kg/injection, schedule: Q04DX003 (ip), vehicle: saline with Tween-80 97 % of control | endpoint: mean survival time, dose: 50.0 mg/kg/injection, schedule: Q04DX003 (ip), vehicle: saline with Tween-80 102 % of control | [4] 98 % of control and 100 % of control

NC/C(=N\O)c1ccc(Cl)cc1
inactive: [8] 97 % of control | [9] 103 % of control

COc1cc(N=Nc2ccccc2C(=O)O)ccc1N(CCCl)CCCl
inactive: endpoint: mean survival time, dose: 6.25 mg/kg/injection, schedule: Q01DX009 (ip), vehicle: Klucel (hydroxypropylcellulose) (HPC) 99 % of control | endpoint: mean survival time, dose: 12.5 mg/kg/injection, schedule: Q01DX009 (ip), vehicle: Klucel (hydroxypropylcellulose) (HPC) 108 % of control | endpoint: mean survival time, dose: 25.0 mg/kg/injection, schedule: Q01DX009 (ip), vehicle: Klucel (hydroxypropylcellulose) (HPC) 123 % of control

CCN1CCC2OCOC2C1 (stereo not given)
inactive: endpoint: mean survival time, dose: 75.0 mg/kg/injection, schedule: Q01DX001 (ip), vehicle: saline 102 % of control | endpoint: mean survival time, dose: 150.0 mg/kg/injection, schedule: Q01DX001 (ip), vehicle: saline 102 % of control

CN=C(N)c1ccc(N=C(N)c2ccc(C(N)=Nc3ccc(C(N)=NC)cc3)cc2)cc1
inactive: endpoint: median survival time, dose: 3.75 mg/kg/injection, schedule: Q08HX018 (ip), vehicle: water 117 % of control | endpoint: median survival time, dose: 10.0 mg/kg/injection, schedule: Q01DX001 (iv), vehicle: saline 95 % of control | endpoint: median survival time, dose: 10.0 micrograms per hour, schedule: Q#X X001 (iv), vehicle: saline 97 % of control

c1ccc(C2CC([P+](c3ccccc3)(c3ccccc3)c3ccccc3)=NN2CC[P+](c2ccccc2)(c2ccccc2)c2ccccc2)cc1 (stereo not given)
inactive: endpoint: mean survival time, dose: 1.56 mg/kg/injection, schedule: Q04DX003 (ip), vehicle: saline with Tween-80 101 % of control | endpoint: mean survival time, dose: 3.13 mg/kg/injection, schedule: Q04DX003 (ip), vehicle: saline with Tween-80 96 % of control | endpoint: mean survival time, dose: 6.25 mg/kg/injection, schedule: Q04DX003 (ip), vehicle: saline with Tween-80 93 % of control

Cc1ccc([N+](=O)[O-])cc1NC(=O)SCCOC(=O)COc1ccc(Cl)cc1
inactive: [4] 98 % of control | [5] 96 % of control | [6] 98 % of control

C[N+]1(CCO)C2CCC1CC(O)C2 (stereo not given)
inactive: endpoint: mean survival time, dose: 100.0 mg/kg/injection, schedule: Q04DX002 (ip), vehicle: saline 97 % of control | endpoint: mean survival time, dose: 200.0 mg/kg/injection, schedule: Q04DX002 (ip), vehicle: saline 102 % of control

NNc1c(F)c(F)c2c(F)c(F)c(F)c(F)c2c1F
inactive: endpoint: mean survival time, dose: 25.0 mg/kg/injection, schedule: Q01DX001 (ip), vehicle: saline with Tween-80 97 % of control | endpoint: mean survival time, dose: 50.0 mg/kg/injection, schedule: Q01DX001 (ip), vehicle: saline with Tween-80 96 % of control | [7] 88 % of control

CCCSc1ccccc1
inactive: [8] 100 % of control | [9] 102 % of control

O=C(O)C1CCCC(C(=O)O)[N-]1.O=C(O)C1CCCC(C(=O)O)[N-]1.[Cr+2] (stereo not given)
inactive: [10] 104 % of control | [11] 101 % of control | endpoint: mean survival time, dose: 400.0 mg/kg/injection, schedule: Q04DX003 (ip), vehicle: saline 104 % of control

O=C1[O][Hg][c]2cc([N+](=O)[O-])cc3cccc1c23.O=C1[O][Hg][c]2cccc3cc([N+](=O)[O-])cc1c23
inactive: [8] 94 % of control | [9] 94 % of control | endpoint: mean survival time, dose: 400.0 mg/kg/injection, schedule: Q01DX001 (ip), vehicle: saline 94 % of control

CN(C)Cc1cc(CN(C)C)c(O)c(CN(C)C)c1
inactive: [10] 107 % of control | [11] 100 % of control

[C-]#[O+].[C-]#[O+].[C-]#[O+].[C-]#[O+].[C-]#[O+].[C-]#[O+].[Cr]
inactive: [1] 103 % of control | [2] 97 % of control and 110 % of control | [3] 112 % of control
